Experiments:
[1] = tested on: MDA-MB-435; assay: Growth inhibition of human MDA-MB-435 cells incubated for 48 hrs by sulforhodamine B assay; type: functional, cell-based; conditions: MDA-MB-435, 48 h
[2] = tested on: SK-OV-3; assay: Growth inhibition of human SKOV3 cells incubated for 48 hrs by sulforhodamine B assay; type: functional, cell-based; conditions: SK-OV-3, 48 h
[3] = tested on: MDA-MB-468; assay: Growth inhibition of human MDA-MB-468 cells incubated for 48 hrs by sulforhodamine B assay; type: functional, cell-based; conditions: MDA-MB-468, 48 h
[4] = tested on: RPMI-8226; assay: Growth inhibition of human RPMI8226 cells assessed as cell growth at 0.01 uM incubated for 48 hrs by sulforhodamine B assay relative to control; type: functional; conditions: RPMI-8226, 48 h, read-out: Activity
[5] = tested on: HCT-116; assay: Growth inhibition of human HCT116 cells assessed as cell growth at 0.01 uM incubated for 48 hrs by sulforhodamine B assay relative to control; type: functional; conditions: HCT-116, 48 h, read-out: Activity
[6] = tested on: SW-620; assay: Growth inhibition of human SW620 cells assessed as cell growth at 0.01 uM incubated for 48 hrs by sulforhodamine B assay relative to control; type: functional; conditions: SW-620, 48 h, read-out: Activity
[7] = tested on: UACC-257; assay: Growth inhibition of human UACC257 cells assessed as cell growth at 0.01 uM incubated for 48 hrs by sulforhodamine B assay relative to control; type: functional; conditions: UACC-257, 48 h, read-out: Activity
[8] = tested on: IGROV-1; assay: Growth inhibition of human IGROV1 cells assessed as cell growth at 0.01 uM incubated for 48 hrs by sulforhodamine B assay relative to control; type: functional; conditions: IGROV-1, 48 h, read-out: Activity
[9] = tested on: NCI/ADR-RES; assay: Growth inhibition of human NCI/ADR-RES cells assessed as cell growth at 0.01 uM incubated for 48 hrs by sulforhodamine B assay relative to control; type: functional; conditions: read-out: Activity
[10] = tested on: CCRF-CEM; assay: Growth inhibition of human CCRF-CEM cells assessed as cell growth at 0.1 uM incubated for 48 hrs by sulforhodamine B assay relative to control; type: functional; conditions: read-out: Activity
[11] = tested on: SR; assay: Growth inhibition of human SR cells assessed as cell growth at 0.1 uM incubated for 48 hrs by sulforhodamine B assay relative to control; type: functional; conditions: read-out: Activity
[12] = tested on: COLO 205; assay: Growth inhibition of human COLO205 cells assessed as cell growth at 0.1 uM incubated for 48 hrs by sulforhodamine B assay relative to control; type: functional; conditions: COLO 205, 48 h, read-out: Activity
[13] = tested on: SW-620; assay: Growth inhibition of human SW620 cells assessed as cell growth at 0.1 uM incubated for 48 hrs by sulforhodamine B assay relative to control; type: functional; conditions: SW-620, 48 h, read-out: Activity
[14] = tested on: A498; assay: Growth inhibition of human A498 cells assessed as cell growth at 0.1 uM incubated for 48 hrs by sulforhodamine B assay relative to control; type: functional; conditions: A498, 48 h, read-out: Activity
[15] = tested on: A549; assay: Growth inhibition of human A549/ATCC cells assessed as cell growth at 1 uM incubated for 48 hrs by sulforhodamine B assay relative to control; type: functional; conditions: A549, 48 h, read-out: Activity
[16] = tested on: NCI-H226; assay: Growth inhibition of human NCI-H226 cells assessed as cell growth at 1 uM incubated for 48 hrs by sulforhodamine B assay relative to control; type: functional; conditions: NCI-H226, 48 h, read-out: Activity
[17] = tested on: NCI-H460; assay: Growth inhibition of human NCI-H460 cells assessed as cell growth at 1 uM incubated for 48 hrs by sulforhodamine B assay relative to control; type: functional; conditions: NCI-H460, 48 h, read-out: Activity
[18] = tested on: LOX IMVI; assay: Growth inhibition of human LOXIMVI cells assessed as cell growth at 1 uM incubated for 48 hrs by sulforhodamine B assay relative to control; type: functional; conditions: read-out: Activity
[19] = tested on: SK-MEL-2; assay: Growth inhibition of human SK-MEL-2 cells assessed as cell growth at 1 uM incubated for 48 hrs by sulforhodamine B assay relative to control; type: functional; conditions: SK-MEL-2, 48 h, read-out: Activity
[20] = tested on: SK-MEL-28; assay: Growth inhibition of human SK-MEL-28 cells assessed as cell growth at 1 uM incubated for 48 hrs by sulforhodamine B assay relative to control; type: functional; conditions: SK-MEL-28, 48 h, read-out: Activity
[21] = tested on: CAKI-1; assay: Growth inhibition of human Caki1 cells assessed as cell growth at 1 uM incubated for 48 hrs by sulforhodamine B assay relative to control; type: functional; conditions: CAKI-1, 48 h, read-out: Activity
[22] = tested on: UO-31; assay: Growth inhibition of human UO31 cells assessed as cell growth at 1 uM incubated for 48 hrs by sulforhodamine B assay relative to control; type: functional; conditions: UO-31, 48 h, read-out: Activity
[23] = tested on: PC-3; assay: Growth inhibition of human PC3 cells assessed as cell growth at 1 uM incubated for 48 hrs by sulforhodamine B assay relative to control; type: functional; conditions: PC-3, 48 h, read-out: Activity
[24] = tested on: T47D; assay: Growth inhibition of human T47D cells assessed as cell growth at 1 uM incubated for 48 hrs by sulforhodamine B assay relative to control; type: functional; conditions: read-out: Activity
[25] = tested on: K562; assay: Growth inhibition of human K562 cells assessed as cell growth at 100 uM incubated for 48 hrs by sulforhodamine B assay relative to control; type: functional; conditions: K562, 48 h, read-out: Activity
[26] = tested on: LOX IMVI; assay: Growth inhibition of human LOXIMVI cells assessed as cell growth at 100 uM incubated for 48 hrs by sulforhodamine B assay relative to control; type: functional; conditions: read-out: Activity
[27] = tested on: NCI/ADR-RES; assay: Growth inhibition of human NCI/ADR-RES cells assessed as cell growth at 100 uM incubated for 48 hrs by sulforhodamine B assay relative to control; type: functional; conditions: read-out: Activity
[28] = tested on: SK-OV-3; assay: Growth inhibition of human SKOV3 cells assessed as cell growth at 100 uM incubated for 48 hrs by sulforhodamine B assay relative to control; type: functional; conditions: SK-OV-3, 48 h, read-out: Activity
[29] = tested on: A498; assay: Growth inhibition of human A498 cells assessed as cell growth at 100 uM incubated for 48 hrs by sulforhodamine B assay relative to control; type: functional; conditions: A498, 48 h, read-out: Activity
[30] = tested on: ACHN; assay: Growth inhibition of human ACHN cells assessed as cell growth at 100 uM incubated for 48 hrs by sulforhodamine B assay relative to control; type: functional; conditions: read-out: Activity
[31] = tested on: SN12C; assay: Growth inhibition of human SN12C cells assessed as cell growth at 100 uM incubated for 48 hrs by sulforhodamine B assay relative to control; type: functional; conditions: read-out: Activity
[32] = tested on: MCF7; assay: Growth inhibition of human MCF7 cells assessed as cell growth at 100 uM incubated for 48 hrs by sulforhodamine B assay relative to control; type: functional; conditions: MCF7, 48 h, read-out: Activity
[33] = read-out: LC50 (the source's name)
[34] = read-out: pLC50 (the source's name) (converted)

Question: What does the source list for `COc1cc(Cl)cc(-c2nn(-c3cccc(NC(=O)c4ccc(N5CCOCC5)c(C(F)(F)F)c4)c3)cc2-c2ccncc2)c1`?
Answer: GI50 ([1]; read-out: GI50): 4.38 µM; LC50 ([1]; read-out: LC50): > 100 µM; TGI ([1]; read-out: TGI): > 100 µM; GI50 ([1]; read-out: pGI50 (converted)): 43.7 µM; LC50 ([1]; read-out: pLC50 (converted)): > 100 µM; TGI ([1]; read-out: pTGI (converted)): > 100 µM; GI50 ([2]; read-out: GI50): > 100 µM; CC50 [2, 33]: > 100 µM; TGI ([2]; read-out: TGI): > 100 µM; GI50 ([2]; read-out: pGI50 (converted)): > 100 µM; CC50 [2, 34]: > 100 µM; TGI ([2]; read-out: pTGI (converted)): > 100 µM; IC50 [3]: 12.1 µM; GI50 ([3]; read-out: GI50): 1.21 µM; CC50 [3, 33]: > 100 µM; TGI ([3]; read-out: TGI): > 100 µM; GI50 ([3]; read-out: pGI50 (converted)): 12 µM; CC50 [3, 34]: > 100 µM; TGI ([3]; read-out: pTGI (converted)): > 100 µM; growth at 0.01 µM [4]: 99%; growth at 0.01 µM [5]: 97%; growth at 0.01 µM [6]: 96%; growth at 0.01 µM [7]: 91%; growth at 0.01 µM [8]: 103%; growth at 0.01 µM [9]: 96%; growth at 0.1 µM [10]: 101%; growth at 0.1 µM [11]: 91%; growth at 0.1 µM [12]: 100%; growth at 0.1 µM [13]: 101%; growth at 0.1 µM [14]: 85%; growth at 1 µM [15]: 52%; growth at 1 µM [16]: 54%; growth at 1 µM [17]: 96%; growth at 1 µM [18]: 95%; growth at 1 µM [19]: 98%; growth at 1 µM [20]: 53%; growth at 1 µM [21]: 94%; growth at 1 µM [22]: 52%; growth at 1 µM [23]: 73%; growth at 1 µM [24]: 93%; growth at 100 µM [25]: 2%; growth at 100 µM [26]: 25%; growth at 100 µM [27]: 30%; growth at 100 µM [28]: 70%; growth at 100 µM [29]: 24%; growth at 100 µM [30]: 28%; growth at 100 µM [31]: 55%; growth at 100 µM [32]: 23%

Question: How did the GI50 ([1]; read-out: GI50) turn out when `COc1cc(Cl)cc(-c2nn(-c3cccc(NC(=O)Nc4ccc(Cl)c(C(F)(F)F)c4)c3)cc2-c2ccncc2)c1` was run?
Answer: 1.75 µM

Question: What about the LC50 ([1]; read-out: LC50) of the same compound?
Answer: > 100 µM

Question: And the TGI ([1]; read-out: TGI)?
Answer: 43.5 µM

Question: What about the GI50 ([1]; read-out: pGI50 (converted)) of the same compound?
Answer: 1.74 µM

Question: And the LC50 ([1]; read-out: pLC50 (converted))?
Answer: > 100 µM

Question: What about the TGI ([1]; read-out: pTGI (converted)) of the same compound?
Answer: 3.47 µM

Question: What about the GI50 ([2]; read-out: GI50) of the same compound?
Answer: 3.15 µM

Question: And the CC50 [2, 33]?
Answer: > 100 µM

Question: And the TGI ([2]; read-out: TGI)?
Answer: 95.5 µM

Question: What about the GI50 ([2]; read-out: pGI50 (converted)) of the same compound?
Answer: 3.16 µM

Question: What about the CC50 [2, 34] of the same compound?
Answer: > 100 µM

Question: And the TGI ([2]; read-out: pTGI (converted))?
Answer: 11.7 µM

Question: And the IC50 [3]?
Answer: 0.99 µM

Question: And the GI50 ([3]; read-out: GI50)?
Answer: 0.9 µM

Question: And the CC50 [3, 33]?
Answer: > 100 µM

Question: What about the TGI ([3]; read-out: TGI) of the same compound?
Answer: 54.7 µM

Question: What about the GI50 ([3]; read-out: pGI50 (converted)) of the same compound?
Answer: 1 µM

Question: What about the CC50 [3, 34] of the same compound?
Answer: > 100 µM

Question: And the TGI ([3]; read-out: pTGI (converted))?
Answer: 5.5 µM

Question: What about the growth at 0.01 µM [4] of the same compound?
Answer: 97%

Question: And the growth at 0.01 µM [5]?
Answer: 104%

Question: And the growth at 0.01 µM [6]?
Answer: 98%

Question: What about the growth at 0.01 µM [7] of the same compound?
Answer: 91%

Question: And the growth at 0.01 µM [8]?
Answer: 112%

Question: What about the growth at 0.01 µM [9] of the same compound?
Answer: 98%

Question: What about the growth at 0.1 µM [10] of the same compound?
Answer: 97%

Question: What about the growth at 0.1 µM [11] of the same compound?
Answer: 92%

Question: And the growth at 0.1 µM [12]?
Answer: 99%

Question: And the growth at 0.1 µM [13]?
Answer: 96%

Question: And the growth at 0.1 µM [14]?
Answer: 59%

Question: What about the growth at 1 µM [15] of the same compound?
Answer: 40%

Question: What about the growth at 1 µM [16] of the same compound?
Answer: 79%

Question: What about the growth at 1 µM [17] of the same compound?
Answer: 43%

Question: And the growth at 1 µM [18]?
Answer: 61%

Question: What about the growth at 1 µM [19] of the same compound?
Answer: 84%

Question: What about the growth at 1 µM [20] of the same compound?
Answer: 85%

Question: What about the growth at 1 µM [21] of the same compound?
Answer: 45%

Question: And the growth at 1 µM [22]?
Answer: 64%

Question: And the growth at 1 µM [23]?
Answer: 14%

Question: What about the growth at 1 µM [24] of the same compound?
Answer: 58%

Question: And the growth at 100 µM [25]?
Answer: -51%

Question: And the growth at 100 µM [26]?
Answer: -34%

Question: What about the growth at 100 µM [27] of the same compound?
Answer: -15%

Question: And the growth at 100 µM [28]?
Answer: -39%

Question: What about the growth at 100 µM [29] of the same compound?
Answer: -70%

Question: What about the growth at 100 µM [30] of the same compound?
Answer: -31%

Question: What about the growth at 100 µM [31] of the same compound?
Answer: -43%

Question: What about the growth at 100 µM [32] of the same compound?
Answer: -8%

Reference: ChEMBL document CHEMBL4308841, “Synthesis, in vitro antiproliferative activity, and kinase inhibitory effects of pyrazole-containing diarylureas and diarylamides” (Eur J Med Chem, 2018)
